# Reference: US20190136188A1, “4HPR AND ITS USE IN THE CULTURING OF HEMATOPOIETIC STEM CELLS” (UNIVERSITY HEALTH NETWORK, priority 2016, published 2019)
# Tests used:
# CB stem and prog cells = assay: Flow cytometry for ROS (CELLROX), mitochondrial membrane potential (TMRE), mitochondrial mass (mitotracker green); type: cell-based, human
# [1] = tested on: long-term repopulating cell (LTRC) in NSG mice; assay: Serial (secondary) transplantation limiting dilution analysis, LTRC frequency; type: in vivo
# Excerpt: (A) Experimental scheme (B) Representative FACS analysis data of in vitro culture for 16 HSC dose time course (n=3). The number of (C) viable cells, (D) CD15+ myeloid cells, (E) GlyA+ erythroid cells, and (F) CD34+ primitive cells measured for the 16 LTRC dose with HTS flow cytometry analysis at day 8 post-treatment for vehicle control or 4HPR prior to xenotransplantation (n=5 biological replicates, 4 in technical triplicate, marked with different symbols). (G) Human CD45+ engraftment at 16 weeks post transplant in injected femur (n=4, 5 mice/biological experiment). Lineage analysis of control or 4HPR transplanted mice from FIG. 5G for (H) B lymphoid, (I) myeloid, (J) erythroid, and (K) primitive CD34+ at the 16 LTRC dose. (L) CD45+ cells were isolated from 5 biological experiments of the 16 LTRC dose primary mice and transplanted at limiting doses into secondary recipients for 16 weeks. Human CD45+ marking of >0.1% was considered positive for secondary engraftment. Limiting dilutation analysis was performed using ELDA software and the long-term repopulating cell (LTRC) frequency for each biological replicate plotted and the average LTRC frequency calculated.
# (A) The number of cells following 8 days of ex vivo culture at the 16 LTRC dose grown as in FIG. 5A for the indicated drug treatments (n=2). […] (2 biological replicates) (E) CD45+ cells were isolated from 2 biological experiments of the 16 LTRC dose primary mice and transplanted at limiting doses into secondary recipients for 16 weeks. Human CD45+ marking of >0.01% was considered positive for secondary engraftment. Limiting dilutation analysis was performed using ELDA software and the long-term repopulating cell (LTRC) frequency for each biological replicate plotted and the average LTRC frequency calculated.
# To determine if 4HPR preserves functional HSC in CB liquid culture, we devised an experimental protocol to test the effect of 4HPR treatment in short-term ex vivo expansion culture on repopulation in serial NSG xenotransplantation to functionally read out LT-HSC (FIG. 5A). […]
# [2] = tested on: CD34+CD38- (stem) and CD34+CD38+ (prog) cells; assay: LC3II immunofluorescence with and without Baflomycin A1 (autophagy); type: cell-based, human; settings: day 2, 2 uM 4HPR, in the presence of BAF; stem vs prog
# Procedure: (A) Representative mmunofluorescence images taken by confocal microscopy for DAPI (blue) and LC3II staining (green) for CD34+CD38− cells (stem) following 2 days of treatment with DMSO control or 2 uM 4HPR with and without the autophagy inhibitor baflomycin A1 (BAF) to assay for basal autophagy and autophagic flux. (B) Quantitation of LC3II foci area as a percentage of total cell area for stem and prog (CD34+38+) cells from three independent CB using R and Image J software. (C) LCII foci area is increased with 4HPR treatment relative to control in the presence of BAF only in stem populations and not Prog populations. (D) Representative flow cytometry histogram plot of cyto-ID fluorescence intensity of control (black) and 4HPR (green) treated stem cells to assay for autophagic flux. Lower mean fluorescence intensity (MFI) indicates more turnover of autophagosomes and thus increased autophagic flux. […] (F) Cytokine withdrawal for 3 hours activates autophagic flux in CB stem cells to similar levels as 2 uM 4HPR as assayed by cyto-ID flow cytometry at day 2 post-treatment (n=3).
# We hypothesize that such selective enhancement of CFC cloning efficiency with 4HPR treatment is a result of activating autophagy in HSC in human CB. Warr et all had previously shown that mouse HSC, but not comitted progenitors activate autophagy under stress stimuli. […]
# [3] = tested on: HSPC subpopulations including HSC, MPP and GMP; assay: BrdU incorporation (proliferation rate); type: cell-based, human; settings: 2 uM 4HPR, day 3 post-treatment
# [4] = stem and prog cells, day 2 and day 3
smiles,measurement,setting,value
"CC1=C(/C=C/C(C)=C/C=C/C(C)=C/C(=O)Nc2ccc(O)cc2)C(C)(C)CCC1 [4HPR, N-(4hydroxyphenyl)retinamide]",mitochondrial mass,"CB stem and prog cells; progenitor cells, 2 days of treatment",does decrease mitochondrial mass
same,ROS,CB stem and prog cells; [4],decreased
same,mitochondrial mass,CB stem and prog cells; [4],decreased
same,mitochondrial membrane potential,CB stem and prog cells; [4],decreased
same,mitochondrial mass,"CB stem and prog cells; stem cells, 2 days of treatment",without significantly altering mitochondrial mass in stem cells
same,mitochondrial mass,"CB stem and prog cells; stem cells, D3 post-treatment",decreases mitochondrial mass by day 3 post-treatment in stem cells
same,frequency of LT-HSC,[1]; 4HPR added to SR1+UM171 treatment compared to SR1+UM171 treatment alone,doubled
same,average LTRC frequency,"[1]; 4HPR treated cells, through 32 weeks of xenotransplantation",1e6 CD45+ cells
same,increase in SRC over control treatment,"[1]; through 32 weeks of xenotransplantation, n=5, p=0.02",3 fold
same,LC3II foci area relative to ctrl (upregulation of autophagy),[2],"only 4HPR-treated stem cells, but not prog cells exhibit an upregulation of autophagy"
same,proliferation rate by BrdU incorporation,[3],decreased proliferation rate
